# Measured values taken from PMC6389962 (Nature Communications, 2019).
# pEC50: −log10 of the molar value. Where two headings read alike, the source gives them in different places. Starred links: 1 amine or outer side, 2 acyl side, 3 side chain; linkers in the order of their positions; H or OH if unused. Positions of bridges follow the written chain, without caps; N, C: chain ends. Residues, ends and D or L forms follow the SMILES beside them. Chains are numbered I, II in the order given. X1 = C[C@@H](CNC(=O)N[C@@H](C)CNC(=O)[*:2])NC(=O)NC[C@H](C)N[*:1]; X5 = C[C@@H](CNC(=O)N[C@@H](C)CNC(=O)[*:1])NC(=O)NC[C@H](C)N[*:2]
# Columns and labels:
# [1] = molecular target: T1, mouse GLP-1 receptor (Mus musculus, UniProt O35659); assay: cell-based; conditions: for Emax: 14: experiment 1
# T1 sequence (O35659 22-463): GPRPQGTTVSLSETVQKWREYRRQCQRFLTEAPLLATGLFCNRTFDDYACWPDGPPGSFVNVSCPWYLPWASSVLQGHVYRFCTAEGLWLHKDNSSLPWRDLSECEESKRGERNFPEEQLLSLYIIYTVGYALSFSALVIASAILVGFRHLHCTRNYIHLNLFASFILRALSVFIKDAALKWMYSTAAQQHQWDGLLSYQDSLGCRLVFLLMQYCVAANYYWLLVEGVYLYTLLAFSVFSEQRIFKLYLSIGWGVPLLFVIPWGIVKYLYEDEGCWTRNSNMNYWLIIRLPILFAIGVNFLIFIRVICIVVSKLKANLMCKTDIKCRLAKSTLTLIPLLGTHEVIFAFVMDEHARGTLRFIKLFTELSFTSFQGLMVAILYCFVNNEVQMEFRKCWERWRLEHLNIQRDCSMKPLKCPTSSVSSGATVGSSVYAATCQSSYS
# [2] = molecular target: T1, mouse GLP-1 receptor; conditions: for Potency (%), percentage of potency compare to GLP-1-G^2: cAMP production, from EC50
# [3] = read-out: Top (best-fit value), variable slope four-parameter fit, unconstrained
SMILES,pEC50 [1],"Emax ([1]; read-out: Top (best-fit value), fit with BOTTOM = 0%) [%]","Emax [1, 3] [%]",LogEC50 (best-fit value) [2],"Potency (%), percentage of potency compare to GLP-1-G^2 [2] [%]"
"CC[C@H](C)[C@H](NC(=O)NC[C@H](C)NC(=O)NC[C@H](C)NC(=O)NC[C@H](C)NC(=O)[C@H](C)NC(=O)[C@H](CCC(N)=O)NC(=O)CNC(=O)[C@H](CCC(=O)O)NC(=O)[C@H](CC(C)C)NC(=O)[C@H](Cc1ccc(O)cc1)NC(=O)[C@H](CO)NC(=O)[C@H](CO)NC(=O)[C@@H](NC(=O)[C@H](CC(=O)O)NC(=O)[C@H](CO)NC(=O)[C@@H](NC(=O)[C@H](Cc1ccccc1)NC(=O)[C@@H](NC(=O)CNC(=O)[C@H](CCC(=O)O)NC(=O)CNC(=O)[C@@H](N)Cc1c[nH]cn1)[C@@H](C)O)[C@@H](C)O)C(C)C)C(=O)N[C@@H](C)C(=O)N[C@@H](Cc1c[nH]c2ccccc12)C(=O)N[C@@H](CC(C)C)C(=O)N[C@H](C(=O)N[C@@H](CCCCN)C(=O)NCC(=O)N[C@@H](CCCNC(=N)N)C(=O)NCC(N)=O)C(C)C [compound 15, GG2[A^uA^uA^u]^19-22] (I: H-HGEGTFTSDVSSYLEGQA / II: IAWLVKGRG-NH2; linker I:C-II:N via X1)",< 5.00,~538,92.7,,
"CC(C)C[C@H](NC(=O)[C@H](Cc1ccc(O)cc1)NC(=O)[C@H](CO)NC(=O)[C@H](CO)NC(=O)[C@@H](NC(=O)[C@H](CC(=O)O)NC(=O)[C@H](CO)NC(=O)[C@@H](NC(=O)[C@H](Cc1ccccc1)NC(=O)[C@@H](NC(=O)CNC(=O)[C@H](CCC(=O)O)NC(=O)CNC(=O)[C@@H](N)Cc1c[nH]cn1)[C@@H](C)O)[C@@H](C)O)C(C)C)C(=O)N[C@@H](CCC(=O)O)C(=O)NCC(=O)N[C@@H](CCC(N)=O)C(=O)N[C@@H](C)C(=O)N[C@@H](C)C(=O)N[C@@H](CCCCN)C(=O)N[C@@H](CCC(=O)O)C(=O)N[C@@H](Cc1ccccc1)C(=O)N[C@@H](C)CNC(=O)N[C@@H](C)CNC(=O)N[C@@H](C)CNC(=O)N[C@H](C(=O)N[C@@H](CCCCN)C(=O)NCC(=O)N[C@@H](CCCNC(=N)N)C(=O)NCC(N)=O)C(C)C [compound 17, GG2[A^uA^uA^u]^23-26]",5.41,,98.7,-5.406,0.01
"CC[C@H](C)[C@H](NC(=O)[C@H](Cc1ccccc1)NC(=O)[C@H](CCC(=O)O)NC(=O)[C@H](CCCCN)NC(=O)[C@H](C)NC(=O)[C@H](C)NC(=O)[C@H](CCC(N)=O)NC(=O)CNC(=O)[C@H](CCC(=O)O)NC(=O)[C@H](CC(C)C)NC(=O)[C@H](Cc1ccc(O)cc1)NC(=O)[C@H](CO)NC(=O)[C@H](CO)NC(=O)[C@@H](NC(=O)[C@H](CC(=O)O)NC(=O)[C@H](CO)NC(=O)[C@@H](NC(=O)[C@H](Cc1ccccc1)NC(=O)[C@@H](NC(=O)CNC(=O)[C@H](CCC(=O)O)NC(=O)CNC(=O)[C@@H](N)Cc1c[nH]cn1)[C@@H](C)O)[C@@H](C)O)C(C)C)C(=O)N[C@@H](C)CNC(=O)N[C@@H](C)CNC(=O)N[C@@H](C)CNC(=O)N[C@@H](CCCCN)C(=O)NCC(=O)N[C@@H](CCCNC(=N)N)C(=O)NCC(N)=O [compound 18, GG2[A^uA^uA^u]^24-27]",< 5.00,,198,,< 0.01
"CC[C@H](C)[C@H](NC(=O)[C@H](Cc1ccccc1)NC(=O)[C@H](CCC(=O)O)NC(=O)[C@H](CCCCN)NC(=O)[C@H](C)NC(=O)[C@H](C)NC(=O)[C@H](CCC(N)=O)NC(=O)CNC(=O)[C@H](CCC(=O)O)NC(=O)NC[C@H](C)NC(=O)NC[C@H](C)NC(=O)NC[C@H](C)NC(=O)[C@@H](NC(=O)[C@H](CC(=O)O)NC(=O)[C@H](CO)NC(=O)[C@@H](NC(=O)[C@H](Cc1ccccc1)NC(=O)[C@@H](NC(=O)CNC(=O)[C@H](CCC(=O)O)NC(=O)CNC(=O)[C@@H](N)Cc1c[nH]cn1)[C@@H](C)O)[C@@H](C)O)C(C)C)C(=O)N[C@@H](C)C(=O)N[C@@H](Cc1c[nH]c2ccccc12)C(=O)N[C@@H](CC(C)C)C(=O)N[C@H](C(=O)N[C@@H](CCCCN)C(=O)NCC(=O)N[C@@H](CCCNC(=N)N)C(=O)NCC(N)=O)C(C)C [compound 4, GG2[A^uA^uA^u]^11-14]",7.01,,81.8,-7.014,0.2
"CC[C@H](C)[C@H](NC(=O)[C@H](Cc1ccccc1)NC(=O)[C@H](CCC(=O)O)NC(=O)[C@H](CCCCN)NC(=O)NC[C@H](C)NC(=O)NC[C@H](C)NC(=O)NC[C@H](C)NC(=O)[C@H](CCC(=O)O)NC(=O)[C@H](CC(C)C)NC(=O)[C@H](Cc1ccc(O)cc1)NC(=O)[C@H](CO)NC(=O)[C@H](CO)NC(=O)[C@@H](NC(=O)[C@H](CC(=O)O)NC(=O)[C@H](CO)NC(=O)[C@@H](NC(=O)[C@H](Cc1ccccc1)NC(=O)[C@@H](NC(=O)CNC(=O)[C@H](CCC(=O)O)NC(=O)CNC(=O)[C@@H](N)Cc1c[nH]cn1)[C@@H](C)O)[C@@H](C)O)C(C)C)C(=O)N[C@@H](C)C(=O)N[C@@H](Cc1c[nH]c2ccccc12)C(=O)N[C@@H](CC(C)C)C(=O)N[C@H](C(=O)N[C@@H](CCCCN)C(=O)NCC(=O)N[C@@H](CCCNC(=N)N)C(=O)NCC(N)=O)C(C)C [compound 12, GG2[A^uA^uA^u]^16-19]",6.62,,65,-6.619,0.1
"CC[C@H](C)[C@H](NC(=O)[C@H](Cc1ccccc1)NC(=O)[C@H](CCC(=O)O)NC(=O)[C@H](CCCCN)NC(=O)[C@H](C)NC(=O)[C@H](C)NC(=O)[C@H](CCC(N)=O)NC(=O)NC[C@H](C)NC(=O)NC[C@H](C)NC(=O)NC[C@H](C)NC(=O)[C@H](CO)NC(=O)[C@H](CO)NC(=O)[C@@H](NC(=O)[C@H](CC(=O)O)NC(=O)[C@H](CO)NC(=O)[C@@H](NC(=O)[C@H](Cc1ccccc1)NC(=O)[C@@H](NC(=O)CNC(=O)[C@H](CCC(=O)O)NC(=O)CNC(=O)[C@@H](N)Cc1c[nH]cn1)[C@@H](C)O)[C@@H](C)O)C(C)C)C(=O)N[C@@H](C)C(=O)N[C@@H](Cc1c[nH]c2ccccc12)C(=O)N[C@@H](CC(C)C)C(=O)N[C@H](C(=O)N[C@@H](CCCCN)C(=O)NCC(=O)N[C@@H](CCCNC(=N)N)C(=O)NCC(N)=O)C(C)C [compound 7, GG2[A^uA^uA^u]^13-16] (I: QAAKEFIAWLVKGRG-NH2 / II: H-HGEGTFTSDVSS; linker I:N-II:C via X5)",< 5.00,,~208,,
"CC[C@H](C)[C@H](NC(=O)[C@H](Cc1ccccc1)NC(=O)[C@H](CCC(=O)O)NC(=O)[C@H](CCCCN)NC(=O)[C@H](C)NC(=O)[C@H](C)NC(=O)[C@H](CCC(N)=O)NC(=O)CNC(=O)[C@H](CCC(=O)O)NC(=O)[C@H](CC(C)C)NC(=O)NC[C@H](C)NC(=O)NC[C@H](C)NC(=O)NC[C@H](C)NC(=O)[C@H](CC(=O)O)NC(=O)[C@H](CO)NC(=O)[C@@H](NC(=O)[C@H](Cc1ccccc1)NC(=O)[C@@H](NC(=O)CNC(=O)[C@H](CCC(=O)O)NC(=O)CNC(=O)[C@@H](N)Cc1c[nH]cn1)[C@@H](C)O)[C@@H](C)O)C(=O)N[C@@H](C)C(=O)N[C@@H](Cc1c[nH]c2ccccc12)C(=O)N[C@@H](CC(C)C)C(=O)N[C@H](C(=O)N[C@@H](CCCCN)C(=O)NCC(=O)N[C@@H](CCCNC(=N)N)C(=O)NCC(N)=O)C(C)C [compound 3, GG2[A^uA^uA^u]^10-13]",6.19,,91.6,-6.187,0.04
